Results on 2 substances are retold here after patent US9068231B2, “Method for screening cancer therapeutic agent using galectin-3, GSK-3β, and fascin-1” (National Cancer Center, priority 2010, dated 2015).

What all share (format): cell-based, human
Data set [1] deals with SNU638 cells. Put plainly: Invasion assay in galectin-3-overexpressing SNU638 cells. To be noted: SNU638 cells infected with galectin-3 lenti-virus. The procedure:
(§1) (A) Expression levels of galectin-3 and fascin-1 were detected by Western blot analysis in SNU-638 cells which were infected with a lenti-virus containing LacZ or galectin-3 and then transfected with fascin-1 siRNA or scrambled RNA as a negative control. β-actin was used as a loading control. (B and C) These cells were analyzed by migration assay (B) and invasion assay (C), presented as histograms (P<0.0005);
(§2) Transfilter migration and invasion assays were performed with 8.0-μm pore inserts in a 24-well Transwell. For this assay, MKN-28 and SNU638 cells were transfected overnight with siRNAs. Then, they were isolated and added to the upper chamber of a Transwell with 0.5 mg/mL collagen type 1 (BD Bioscience)-coated filters in migration assay. The invasion assay was performed using 1/15 diluted Matrigel (BD Bioscience)-coated filters at 2×10^4 cells/well. RPMI 1640 supplemented with 10% fetal bovine serum and 1% antibiotics was added to the lower chamber and the cells were allowed to incubate for 20 hours. Migrating and invading cells were quantified after H&E staining. Each experiment was performed in triplicate and mean values are presented. A wound healing assay was performed according to the published protocol (Liang C C, Park A Y, Guan J L. In vitro scratch assay: a convenient and inexpensive method for analysis of cell migration in vitro. Nat Protoc 2007; 2:329-33).

Data set [2] has as its system MKN-28 cells. Put plainly: Wound healing assay. The protocol: as §2
The test system of data set [3] is MKN-28 cells. Put plainly: Immunocytochemistry (fascin-1, F-actin, cell morphology). As to conditions: confocal microscopy. The procedure:
(§3) (A) mRNA and protein levels of galectin-3 and fascin-1 in human gastric cancer MKN-28 cells after transfection with scrambled siRNA (scRNA) or galectin-3 siRNA at two different concentrations (5 and 10 nmol/L). Total RNA and protein obtained from the cells harvested 48 hrs after the transfection were analyzed by RT-PCR and Western blotting. β-actin was used as a loading control. (B) Immunocytochemical analysis of scRNA or galectin-3 siRNA-transfected MKN-28 cells by DAPI (blue), anti-fascin-1 FITC (green) and anti-F-actin Texas Red (red) was detected with a confocal microscope. Bars represent a length of 10 μm. (C and D) A histogram depicting the migration of galectin-3 silenced cells. The results of the migration assay are presented with a statistical significance (P<0.0005) (C), and in cell photographs (D). (E) Expression levels of galectin-3 and fascin-1 in SNU-638 cells were determined by Western blotting after transfection with pcDNA3.1/NT-GFP-Galectin-3 and vector control of pcDNA3.1/NT-GFP. β-actin was used as a loading control;
(A) Fascin-1 protein expression in MKN-28 cells transfected with scrambled siRNA (scRNA) or fascin-1 siRNA. β-actin was used as a loading control. (B) Immunocytochemical analysis of MKN-28 cells transfected with scRNA or fascin-1 siRNA by DAPI (blue), anti-fascin-1 FITC (green) and anti-F-actin Texas Red (red) was conducted using confocal microscopy. Bars represent 10 μm in length. (C) Cell migration in fascin-1-silenced MKN-28 cells. Results of the migration assay are presented as a histogram, with statistical significance (P<0.0004). ([…]) (D) Colony formation assay, (E) invasion assay, and (F) wound healing assay of MKN-28 cells were performed with transfected galectin-3 and fascin-1 siRNAs. Results of the colony formation assay and invasion assay are shown as a histogram, with statistical significance (P<0.0005). Cell migration was measured by microscopy;
(§4) Cells cultured in chamber slides were fixed and blocked with 5% bovine serum albumin (BSA) in PBS and then incubated with primary anti-galectin-3, anti-fascin-1, anti-GSK-3β, anti-β-catenin antibodies diluted (1:200) in PBS. The cells were conjugated with the secondary antibodies labeled with FITC, Cy5 (Zymed), or Texas Red-X phalloidin (Invitrogen). The samples were treated with a mounting medium, and analyzed with a confocal microscope (Carl-Zeiss).

Data set [4] concerns MKN-28 cells. Put plainly: Colony formation (soft agar growth) assay. To be noted: 3 weeks. The protocol: A layer of 0.5 mL RPMI 1640 containing 0.5% agar and 5% fetal bovine serum was placed in 24-well plates. After solidification of this bottom layer, cells transfected with galectin-3 and fascin-1 siRNAs (1.25×10^4 per well) were poured into a top layer of 0.25 mL RPMI 1640 containing 0.3% agar and 5% fetal bovine serum. Colonies were scored by microscopic examination after 3 weeks. All samples were prepared in triplicate.

For data set [5], the system named is MKN-28 cells. Put plainly: Invasion assay (Matrigel-coated filters). To be noted: 20 hours. The protocol:
as §2

Data set [6] concerns fascin-1. In words: Western blot of fascin-1 in galectin-3-overexpressing SNU638 cells. To be noted: SNU638 cells infected with galectin-3 lenti-virus. The protocol: as §1
(§5) For use in Western blotting and immunoprecipitation, cell lysates were prepared in RIPA buffer containing a protease inhibitor cocktail. Immunoblotting was performed with anti-galectin-3, anti-fascin-1, anti-GSK-3β, anti-TCF-4 (Santa-Cruz), anti-GSK-3β[pS^[…]] (biosourse), anti-β-catenin and anti-lamin A/C (Cell-Signaling), and anti-β-actin (Sigma). Immunoprecipitation was performed with A/G agarose beads coated with anti-galectin-3 and anti-β-catenin. Proteins were detected by Western Blotting with anti-galectin-3, anti-β-catenin, anti-GSK-3β and anti-TCF-4. Mouse/rabbit IgG was used as a negative control.
The full-length human galectin-3 gene cloned in the expression vector pcDNA3.1-NT-GFP-gal3 was amplified by PCR using a primer set of 5′-[…]-3′ (SEQ ID NO. 13) and 5′-[…]-3′ (SEQ ID NO. 14). The PCR product thus obtained was cloned into pcDNA3.1-NT-GFP using the TA cloning method (Invitrogen). […]
(In general: In western blotting, separated proteins are transferred to a membrane and probed.)

In data set [7] the test system is SNU638 cells. Put plainly: Transfilter migration assay in galectin-3-overexpressing SNU638 cells. As to conditions: SNU638 cells infected with galectin-3 lenti-virus. The protocol: as §1, §2
Data set [8] has as its system fascin-1. Put plainly: RT-PCR and Western blotting of fascin-1 after siRNA transfection in MKN-28 cells. The procedure:
as §3, with “The results of the migration assay are presented with a statistical significance (P<0.0005) (C), and in cell photographs (D).” left out
(A) Fascin-1 protein expression in MKN-28 cells transfected with scrambled siRNA (scRNA) or fascin-1 siRNA. β-actin was used as a loading control. […] Cell migration was measured by microscopy; […]
(§6) For use in Western blotting and immunoprecipitation, cell lysates were prepared in RIPA buffer containing a protease inhibitor cocktail. […] Proteins were detected by Western Blotting with anti-galectin-3, anti-β-catenin, anti-GSK-3β and anti-TCF-4. […]

The subject of data set [9] is MKN-28 cells. In words: Transfilter migration assay. To be noted: 20 hours, collagen type 1-coated filters. The procedure: as §2
In data set [10] the test system is phosphorylated GSK-3β, β-catenin. In words: Western blotting of nuclear and cytosol fractions. To be noted: MKN-28 cells. The procedure:
(§7) Whole-cell lysate was used as a positive control. […] Whole-cell lysates were used as a positive control. (C) Chromatin immunoprecipitation assay was performed as described in the Materials and Methods of the Example section. Total genomic DNA on an input lane was used as a control for the PCR reaction. (D) Luciferase activity of TCF4 in lacZ and galectin-3 overexpressing cells. Luciferase assay was performed as described in the Example section. A construct of SP1 consensus was used as a negative control. […] Lamin A/C was used as a nuclear fraction control;
as §5

Data set [11] deals with fascin-1 promoter. In words: Chromatin immunoprecipitation assay on fascin-1 promoter. As to conditions: ChIP assay, with or without galectin-3. The procedure: as §7
Chromatin immunoprecipitation assays were performed using a chIP assay kit (Upstate), according to the manufacturer's instructions. Anti-TCF4, anti-β-catenin, anti-galectin-3, and rabbit IgG were used to immunoprecipitate DNA-containing complexes. Primer was prepared with fascin-1 promoter binding sites: fascin-1 promoter (−1321), 5′-[…]-3′ (SEQ ID NO. 11) and (−1061) 5′-[…]-3′ (SEQ ID NO. 12), followed by performing PCR.

Data set [12] has as its system β-catenin/TCF-4. Put plainly: Immunoprecipitation and Western blot of GSK-3β, β-catenin and TCF-4 interaction. As to conditions: MKN-28 cells, immunoprecipitation. The procedure: as §7, §5
The test system of data set [13] is galectin-3. In words: RT-PCR and Western blotting of galectin-3 after siRNA transfection. As to conditions: MKN-28 cells, siRNA 5 and 10 nmol/L, 48 hrs after transfection. The protocol:
as §3, with “control; […]” for “control;”
as §6

Data set [14] relates to GSK-3β, β-catenin. Put plainly: Immunocytochemistry of GSK-3β and β-catenin localization. As to conditions: galectin-3-silenced cells, confocal microscope. The protocol: DAPI was used to figure out the nucleus (blue). Bars represent a 10 μm length;
as §4

In the case of “5′-UCCAGCAAGAAUGCCAGCUGCU ACU-3′ (listed as RNA, chemistry not given here) [fascin-1 siRNA, siRNA silencing fascin-1, obtained from Invitrogen; called a candidate therapeutic agent]”, in data set [1], the “cell invasion by galectin-3 overexpression” value is “inhibitory effect”. In addition, in [2], the wound healing entry was “significantly reduced”. In addition, in [3], the F-actin localization result is listed as “appeared only in cell-cell contact areas” and the cell morphology entry is “changed to a round shape without spikes”. Also, the colony formation entry in [4] is on record as “significantly reduced”. The cell invasion result in data set [5] is “significantly reduced”. In addition, the “level of fascin-1 protein” value in data set [6] is on record as “diminished”. In addition, the “cell migration increased by galectin-3 overexpression” value in [7] is “significantly reduced”. The fascin-1 protein expression entry in [8] (fascin-1 siRNA, Western blot) is reported as “reduced fascin-1 expression”. The “total number of migrated cells / cell migration” value in data set [9] is reported as “decreased the migration”.

Take “5′-AUAUGAAGCACUGGUGAGGUCUAUG-3′ (listed as RNA, chemistry not given here) [galectin-3 siRNA, siRNA silencing galectin-3, obtained from Invitrogen]”: in data set [10], the “level of phosphorylated GSK-3β” value is “decreased in both the nucleus and the cytosol”; the “level of β-catenin” value was “decreased in both the nucleus and the cytosol”. Besides, the wound healing result in [2] is on record as “significantly reduced”. Moreover, in [11], the “binding of β-catenin and TCF-4 to the promoter regions of fascin-1” value is listed as “lost their binding activity”. In addition, in data set [3], the F-actin localization entry is “appeared only at cell-cell contact areas”; the cell morphology result is “became round in shape and did not have any protruding regions”; the “fascin-1 expression in the cytosol (immunocytochemistry)” value was “diminished in the cytosol”. Also, the colony formation result in [4] was “significantly reduced”. In [12], the “interaction between GSK-3β and β-catenin” value is recorded as “weakened”; the “interaction between β-catenin and TCF-4” value is reported as “diminished”. The “expression levels of mRNAs and proteins of galectin-3” value in data set [13] is listed as “reduction in the expression levels”. Further, in data set [14], the “localization of GSK-3β” value is recorded as “located only in cytosol” and the “localization of β-catenin” value is “not detected either in the nucleus or cytosol”. The cell invasion entry in [5] is reported as “significantly reduced”. Besides, the “expression levels of mRNAs and proteins of fascin-1” value in data set [8] (galectin-3 siRNA 5 and 10 nmol/L, 48 hrs after transfection) is on record as “reduction in the expression levels”. Further, the “total number of migrated cells / cell migration” value in data set [9] is “reduced by almost half”.
